These results are taken from patent publication US10927105B1 (Lundbeck La Jolla Research Center, Inc., priority 2017, dated 2021).

For orientation: IC50 means the concentration at which inhibition is half-maximal.

Structures are written as SMILES.

The target in one experiment is FAAH (Homo sapiens (Human), UniProt O00519). Kind of experiment: In vitro competitive activity-based protein profiling (human prefrontal cortex membrane fractions, FP-Rh probe), FAAH band. As to conditions: read-out: FAAH IC50 (μM) (human); human prefrontal cortex membrane fractions.
FAAH, sequence (O00519 whole entry): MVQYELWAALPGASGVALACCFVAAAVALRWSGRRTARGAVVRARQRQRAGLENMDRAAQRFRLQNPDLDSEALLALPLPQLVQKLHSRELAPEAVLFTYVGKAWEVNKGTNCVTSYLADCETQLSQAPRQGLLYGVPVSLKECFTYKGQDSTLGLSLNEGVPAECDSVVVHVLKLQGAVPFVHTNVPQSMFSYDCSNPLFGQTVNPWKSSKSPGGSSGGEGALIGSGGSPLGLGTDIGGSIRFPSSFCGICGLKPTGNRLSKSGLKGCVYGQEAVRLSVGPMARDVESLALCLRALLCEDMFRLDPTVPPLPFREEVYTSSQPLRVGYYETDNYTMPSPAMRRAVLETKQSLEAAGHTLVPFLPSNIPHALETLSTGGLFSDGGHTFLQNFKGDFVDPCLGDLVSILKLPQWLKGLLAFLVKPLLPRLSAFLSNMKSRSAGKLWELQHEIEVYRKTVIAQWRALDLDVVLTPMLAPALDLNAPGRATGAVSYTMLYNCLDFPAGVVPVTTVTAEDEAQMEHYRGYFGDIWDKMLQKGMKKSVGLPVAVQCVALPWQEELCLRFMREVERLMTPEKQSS
Another experiment addresses MAGL (Homo sapiens (Human), UniProt Q99685). The experiment in a line: In vitro competitive activity-based protein profiling (human prefrontal cortex membrane fractions, FP-Rh probe), MAGL band. To be noted: read-out: MAGL IC50 (μM) (human); human prefrontal cortex membrane fractions.

MAGL, sequence (Q99685 whole entry): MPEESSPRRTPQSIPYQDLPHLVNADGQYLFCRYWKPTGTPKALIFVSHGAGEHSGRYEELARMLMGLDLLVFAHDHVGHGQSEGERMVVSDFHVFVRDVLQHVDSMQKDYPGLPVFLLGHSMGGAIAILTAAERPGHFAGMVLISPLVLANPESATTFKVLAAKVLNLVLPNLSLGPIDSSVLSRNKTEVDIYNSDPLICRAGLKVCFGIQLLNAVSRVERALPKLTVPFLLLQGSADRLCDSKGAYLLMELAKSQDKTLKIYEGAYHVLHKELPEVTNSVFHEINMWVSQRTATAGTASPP
Protocol for FAAH: Biological Evaluation In Vitro Competitive Activity-Based Protein Profiling.
Proteomes (mouse brain membrane fraction for mouse assays; human prefrontal cortex membrane fractions for human assays) (50 mL, 1.0 mg/mL total protein concentration) were preincubated with varying concentrations of inhibitors at 37° C. After 30 min, FP-Rh (1.0 mL, 50 mM in DMSO) was added and the mixture was incubated for another 30 min at 37° C. Reactions were quenched with SDS loading buffer (15 μL-4×) and run on SDS-PAGE.

On to `NC(=O)c1ccn(C(=O)N2CC3CN(Cc4ccc(N5CCOCC5)cc4C(F)(F)F)CC3C2)n1` (stereo not drawn) [Example 17, 1-(5-(4-Morpholino-2-(trifluoromethyl)benzyl)octahydropyrrolo[3,4-c]pyrrole-2-carbonyl)-1H-pyrazole-3-carboxamide], for which the IC50 on FAAH and on MAGL was less than 0.1 µM throughout. In the case of `O=C(O)c1ccn(C(=O)N2C[C@H]3C[C@H](OCc4ccc(Oc5ccc(Cl)cc5)cc4)C[C@H]3C2)n1` [Example 55, 1-(trans-5-((4-(4-chlorophenoxy)-benzyl)oxy)-octahydrocyclopenta-[c]pyrrole-2-carbonyl)-1H-pyrazole-3-carboxylic acid], the IC50 on FAAH and at MAGL was less than 0.1 µM throughout.

For the compound `NC(=O)c1ccn(C(=O)N2CCC3(CCN(Cc4cc(Cl)ccc4C(F)(F)F)C3)CC2)n1` [Example 99, 1-(2-(5-chloro-2-(trifluoromethyl)-benzyl)-2,8-diazaspiro[4.5]-decane-8-carbonyl)-1H-pyrazole-3-carboxamide], the IC50 at FAAH and on MAGL was less than 0.1 µM each time. With `O=C(O)c1ccn(C(=O)N2C[C@H]3C[C@H](Oc4cccc(-c5ccccc5)c4)C[C@H]3C2)n1` [Example 125, 1-(trans-5-([1,1′-biphenyl]-3-yloxy)-octahydrocyclopenta-[c]pyrrole-2-carbonyl)-1H-pyrazole-3-carboxylic acid], the 50% inhibitory concentration (IC50) at FAAH and on MAGL was less than 0.1 µM throughout.

Consider `CN(Cc1ccccc1Cl)[C@H]1C[C@@H]2CN(C(=O)n3cc(Cl)c(C(N)=O)n3)C[C@@H]2C1` [Example 128, 4-chloro-1-(trans-5-((2-chlorobenzyl)-(methyl)amino)-octahydrocyclopenta-[c]pyrrole-2-carbonyl)-1H-pyrazole-3-carboxamide], for which the IC50 on FAAH and at MAGL was less than 0.1 µM each time. Consider `O=C(O)c1nn(C(=O)N2CCN(Cc3cccc(Oc4ccc(Cl)cc4)c3)CC2)cc1Cl` [Example 132, 4-chloro-1-(4-(3-(4-chlorophenoxy)-benzyl)-piperazine-1-carbonyl)-1H-pyrazole-3-carboxylic acid], for which the half-inhibitory concentration (IC50) at FAAH and at MAGL was less than 0.1 µM each time. As to `O=C(O)c1nn(C(=O)N2CCC3(CCCN3Cc3cc4ccc(C(F)(F)F)cc4s3)CC2)cc1Cl` [Example 139, 4-chloro-1-(1-((6-(trifluoromethyl)-benzo[b]thiophen-2-yl)methyl)-1,8-diazaspiro[4.5]-decane-8-carbonyl)-1H-pyrazole-3-carboxylic acid], the IC50 at FAAH and on MAGL was less than 0.1 µM in each case.

For the compound `C#Cc1ccc(CN2CCN(C(=O)n3ccc(C(N)=O)n3)CC2)cc1` [Example 144, 1-(4-(4-ethynylbenzyl)-piperazine-1-carbonyl)-1H-pyrazole-3-carboxamide], the IC50 at FAAH and at MAGL was less than 0.1 µM throughout. Consider `O=C(O)c1ccn(C(=O)N2C[C@H]3C[C@H](OCc4cccc(Oc5ccc(Cl)cc5)c4)C[C@H]3C2)n1` [Example 158, 1-(trans-5-((3-(4-chlorophenoxy)-benzyl)oxy)-octahydrocyclopenta-[c]pyrrole-2-carbonyl)-1H-pyrazole-3-carboxylic acid], for which the IC50 at FAAH and on MAGL was less than 0.1 µM throughout. In the case of `O=C(O)c1ccn(C(=O)N2CCN(Cc3cc(F)cc(Oc4ccc(Cl)cc4)c3)CC2)n1` [Example 161, 1-(4-(3-(4-chlorophenoxy)-5-fluorobenzyl)-piperazine-1-carbonyl)-1H-pyrazole-3-carboxylic acid], the IC50 on FAAH and at MAGL was less than 0.1 µM throughout.

Consider `Cc1cc(CO[C@H]2C[C@@H]3CN(C(=O)n4ccc(C(=O)O)n4)C[C@@H]3C2)ccc1C(F)(F)F` [Example 172, 1-(trans-5-((3-methyl-4-(trifluoromethyl)-benyl)oxy)-octahydrocyclopenta-[c]pyrrole-2-carbonyl)-1H-pyrazole-3-carboxylic acid], for which the IC50 on FAAH and at MAGL was less than 0.1 µM each time. In the case of `NC(=O)c1ccn(C(=O)N2CCN(Cc3ccc(C(F)(F)F)cc3N3CCCC3)CC2)n1` [Example 173, 1-(4-(2-(pyrrolidin-1-yl)-4-(trifluoromethyl)-benzyl)piperazine-1-carbonyl)-1H-pyrazole-3-carboxamide], the IC50 at FAAH and at MAGL was less than 0.1 µM in each case. On to `NC(=O)c1ccn(C(=O)N2CCC3(CCN(Cc4cc(Cl)ccc4Cl)C3)C2)n1` (stereo not drawn) [Example 426, 1-(7-(2,5-dichlorobenzyl)-2,7-diazaspiro[4.4-]-nonane-2-carbonyl)-1H-pyrazole-3-carboxamide], for which the concentration for half-maximal inhibition (IC50) at MAGL is less than 0.1 µM. Same read-out and setting: in the case of `CNC(=O)c1ccn(C(=O)N2CCC3(CCN(Cc4cc(Cl)ccc4Cl)C3)C2)n1` (stereo not drawn) [Example 428, 1-(7-(2,5-dichlorobenzyl)-2,7-diazaspiro[4.4]-nonane-2-carbonyl)-N-methyl-1H-pyrazole-3-carboxamide] it was less than 0.1 µM; in that of `NC(=O)c1ccn(C(=O)N2CCC3(CCN(Cc4cccc(C(F)(F)F)c4)C3)C2)n1` (stereo not drawn) [Example 429, 1-(7-(3-(trifluoromethyl)-benzyl)-2,7-diazaspiro[4.4]-nonane-2-carbonyl)-1H-pyrazole-3-carboxamide], less than 0.1 µM; in that of `CNC(=O)c1ccn(C(=O)N2CC3CN(Cc4cc(Cl)ccc4Cl)CC3C2)n1` (stereo not drawn) [Example 430, 1-(5-(2,5-dichlorobenzyl)-octahydropyrrolo-[3,4-c]pyrrole-2-carbonyl)-N-methyl-1H-pyrazole-3-carboxamide], less than 0.1 µM.

With `CNC(=O)c1ccn(C(=O)N2CC3CN(Cc4cccc(C(F)(F)F)c4)CC3C2)n1` (stereo not drawn) [Example 432, N-methyl-1-(5-(3-(trifluoromethyl)-benzyl)-octahydropyrrolo-[3,4-c]pyrrole-2-carbonyl)-1H-pyrazole-3-carboxamide], the IC50 on MAGL is less than 0.1 µM. The same measure, in the same setting: the same measure for `NC(=O)c1ccn(C(=O)N2CCC3(CCN(Cc4cc(Cl)cc(C(F)(F)F)c4)C3)C2)n1` (stereo not drawn) [Example 433, 1-(7-(3-chloro-5-(trifluoromethyl)-benzyl)-2,7-diazaspiro[4.4]-nonane-2-carbonyl)-1H-pyrazole-3-carboxamide]: less than 0.1 µM. The same measure, in the same setting: the same measure for `CNC(=O)c1ccn(C(=O)N2C[C@H]3C[C@@H](N(C)Cc4ccccc4C(F)(F)F)C[C@H]3C2)n1` [Example 434, N-methyl-1-(cis-5-(methyl(2-(trifluoromethyl)-benzyl)amino)-octahydrocyclopenta-[c]pyrrole-2-carbonyl)-1H-pyrazole-3-carboxamide]: less than 0.1 µM; for `CNC(=O)c1ccn(C(=O)N2CCC3(CCN(Cc4cc(Cl)cc(C(F)(F)F)c4)C3)C2)n1` (stereo not drawn) [Example 435, 1-(7-(3-chloro-5-(trifluoromethyl)-benzyl)-2,7-diazaspiro[4.4]-nonane-2-carbonyl)-N-methyl-1H-pyrazole-3-carboxamide]: less than 0.1 µM; for `NC(=O)c1ccn(C(=O)N2CCC3(CCN(Cc4ccc(N5CCOCC5)cc4C(F)(F)F)C3)C2)n1` (stereo not drawn) [Example 436, 1-(7-(4-morpholino-2-(trifluoromethyl)-benzyl)-2,7-diazaspiro-[4.4]nonane-2-carbonyl)-1H-pyrazole-3-carboxamide]: less than 0.1 µM. Still for that read-out and setting: the same measure for `CNC(=O)c1ccn(C(=O)N2CC3CN(Cc4cc(Cl)cc(C(F)(F)F)c4)CC3C2)n1` (stereo not drawn) [Example 437, 1-(5-(3-chloro-5-(trifluoromethyl)-benzyl)-octahydropyrrolo-[3,4-c]pyrrole-2-carbonyl)-N-methyl-1H-pyrazole-3-carboxamide]: less than 0.1 µM; for `CNC(=O)c1ccn(C(=O)N2C[C@H]3C[C@@H](N(C)Cc4ccc(C(F)(F)F)cc4)C[C@H]3C2)n1` [Example 439, N-methyl-1-(cis-5-(methyl(4-(trifluoromethyl)-benzyl)amino)-octahydrocyclopenta-[c]pyrrole-2-carbonyl)-1H-pyrazole-3-carboxamide]: less than 0.1 µM; for `CNC(=O)c1ccn(C(=O)N2CC3CN(Cc4ccc(N5CCOCC5)cc4C(F)(F)F)CC3C2)n1` (stereo not drawn) [Example 440, N-methyl-1-(5-(4-morpholino-2-(trifluoromethyl)-benzyl)-octahydropyrrolo-[3,4-c]pyrrole-2-carbonyl)-1H-pyrazole-3-carboxamide]: less than 0.1 µM.

`Cc1cn(C(=O)N2CCN(Cc3cccc(Oc4ccc(Cl)cc4)c3)C[C@@H]2C)nc1C(=O)O` [Example 442, (S)-1-(4-(3-(4-chlorophenoxy)-benzyl)-2-methylpiperazine-1-carbonyl)-4-methyl-1H-pyrazole-3-carboxylic acid]: at MAGL, the IC50 is less than 0.1 µM. Still for that read-out and setting: the same measure for `O=C(O)c1nn(C(=O)N2CCN(Cc3ccc(C(F)(F)F)cc3N3CCCC3)CC2)cc1Cl` [Example 443, 4-chloro-1-(4-(2-(pyrrolidin-1-yl)-4-(trifluoromethyl)-benzyl)-piperazine-1-carbonyl)-1H-pyrazole-3-carboxylic acid]: less than 0.1 µM.

Turning to `CC(C)COc1cccc(O[C@H]2C[C@@H]3CN(C(=O)n4ccc(C(=O)O)n4)C[C@@H]3C2)c1Cl` [Example 448], the IC50 at MAGL was less than 0.1 µM. On the same count and under the same terms, the same measure for `C[C@H]1CN(Cc2cccc(OCC(C)(C)O)c2Cl)CCN1C(=O)n1ccc(C(N)=O)n1` [Example 450, (S)-1-(4-(2-chloro-3-(2-hydroxy-2-methylpropoxy)-benzyl)-2-methylpiperazine-1-carbonyl)-1H-pyrazole-3-carboxamide]: less than 0.1 µM; for `CC(C)(O)COc1cccc(O[C@H]2C[C@@H]3CN(C(=O)n4ccc(C(=O)O)n4)C[C@@H]3C2)c1Cl` [Example 451, 1-(trans-5-(2-chloro-3-(2-hydroxy-2-methylpropoxy)-phenoxy)-octahydrocyclopenta-[c]pyrrole-2-carbonyl)-1H-pyrazole-3-carboxylic acid]: less than 0.1 µM. On the same count and under the same terms, in the case of `O=C(O)c1ccn(C(=O)N2CCN(Cc3cccc(C(F)(F)F)c3N3CCOCC3)CC2)n1` [Example 453, 1-(4-(2-morpholino-3-(trifluoromethyl)-benzyl)-piperazine-1-carbonyl)-1H-pyrazole-3-carboxylic acid] it was less than 0.1 µM.
